In the SangsterLogP compilation:

SMILES	logP
Cc1sc(S(C)=O)c([N+](=O)[O-])c1C (configuration not stated)	2.65
CCS(=O)c1sc(C(C)=O)c(N)c1C#N (configuration not stated)	1.82
Cc1c(C#N)sc(S(C)(=O)=O)c1-c1ccc(Cl)cc1	3.8
CS(=O)c1sccc1[N+](=O)[O-] (configuration not stated)	1.69
CS(=O)c1ccc([N+](=O)[O-])s1 (configuration not stated)	1.4
CS(=O)c1ccsc1 (configuration not stated)	0.91
CCS(=O)c1sc(Cl)cc1C#N (configuration not stated)	2.31
CC(=O)c1sc(S(C)=O)c(-c2ccc(Cl)cc2)c1C (configuration not stated)	3.82
CCS(=O)c1sc(C#N)c(OC)c1C#N (configuration not stated)	2.35
CCCS(=O)c1sccc1[N+](=O)[O-] (configuration not stated)	2.52
CCS(=O)c1sc(C#N)c(C)c1C(C)=O (configuration not stated)	2.22
CS(=O)c1sccc1C#N (configuration not stated)	0.96
CCCCS(=O)c1sc(C#N)cc1C#N (configuration not stated)	2.64
CCS(=O)c1sc(C(C)=O)c(C)c1C#N (configuration not stated)	2.22
COc1c(C#N)sc(S(C)=O)c1C#N (configuration not stated)	2.02
CCCS(=O)c1sc(C#N)cc1C#N (configuration not stated)	2.18

SMILES	logP
CS(=O)c1sccc1Br (configuration not stated)	1.71
CCS(=O)c1sccc1[N+](=O)[O-] (configuration not stated)	2.06
CCS(=O)c1sc(C#N)cc1C#N (configuration not stated)	1.78
CCCS(=O)c1sc(C#N)c(Cl)c1C#N (configuration not stated)	2.95
CS(=O)c1sc(C#N)cc1C#N (configuration not stated)	1.31
CC(=O)c1sc(S(C)=O)c(C#N)c1-c1ccc(Cl)cc1 (configuration not stated)	3.31
CS(=O)c1cccs1 (configuration not stated)	0.91
CCCCS(=O)c1sc(C#N)c(Cl)c1C#N (configuration not stated)	3.44
CS(=O)c1scc(-c2ccccc2)c1[N+](=O)[O-] (configuration not stated)	3.2
CCS(=O)c1sc(C(C)=O)c(Cl)c1C#N (configuration not stated)	2.64
Cc1csc(S(C)=O)c1[N+](=O)[O-] (configuration not stated)	2.19
CCS(=O)c1ccc(C(C)=O)s1 (configuration not stated)	1.31
CCOC(=O)c1cc(C#N)c(S(C)=O)s1 (configuration not stated)	2.27
CS(=O)c1sc(C#N)c(Cl)c1C#N (configuration not stated)	2.15
CC(=O)c1sc(S(C)=O)c(-c2ccc(Cl)cc2)c1N (configuration not stated)	3.18
CCS(=O)c1sc(C(C)=O)c(C)c1[N+](=O)[O-] (configuration not stated)	2.81
